# Measured values as given in patent publication US20230123334A1, “AMINO LIPID COMPOUND, PREPARATION METHOD THEREFOR, AND APPLICATION THEREOF” (SHENZHEN SHENXIN BIOTECHNOLOGY CO., LTD., priority 2020, published 2023).
# Columns and labels:
# Type in all cases: cell-based
# MCF7 cells [1] = experiment: Transfection of MCF7 cell line, mRNA vectors; conditions: 50 ng EGFP mRNA per well
# Description: (§1) Cell line: MCF7 cells (ATCC HTB-22)
# Medium: DMEM supplemented with 10 fetal bovine serum (Invitrogen)
# (§2) Screening: cell transfection on 96-well plates
# Detection (readout): percentage of the number of GFP fluorescent cells relative to the total number of cells (the total number of cells was determined using nucleus dye Hoechst). Lipofectamine2000 (Invitrogen) was used as the positive control.
# Method: the experimental method was basically the same with Example 4, and the mass of EGFP mRNA (TriLink) for transfection was 50 ng per well.
# Hela cells [2] = experiment: Transfection of Hela cell line, mRNA vectors; conditions: 50 ng EGFP mRNA per well
# How it was run: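 HeLa cells in DMEM with 10% FBS transfected with 50 ng EGFP mRNA per well. Readout is percentage of GFP-positive cells among total cells counted by Hoechst nuclear stain; Lipofectamine2000 served as positive control.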
# Hela cells [3] = experiment: Transfection of Hela cell line, DNA vectors; conditions: 75 ng plasmid DNA, GFP cells / total cells
# How it was run: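 Amino lipid/DOPE liposomes in sodium acetate pH 5.6 were complexed with 75 ng psin-EGFP-IRES-Puro plasmid for 30 min at room temperature, then mixed with 3-5×10^4 Hela cells in DMEM/10% FBS at 37° C. Hoechst stain after 20-24 h, imaging after a further 20-24 h. Efficiency = GFP-positive cells / total nuclei.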
# MCF7 cells [4] = experiment: Transfection of MCF7 cell line, DNA vectors; design: concentration or dose not given beside the values; conditions: plasmid DNA, GFP cells / total cells
# Description: as §1
# Medium DMEM supplemented with […] fetal bovine serum
# as §2
# Detection (readout): percentage of the number of GFP fluorescent cells relative to the total number of cells (the total number of cells was determined using nucleus dye Hoechst). Lipofectamine2000 was used as the positive control, according to the manufacturer's instructions.
# Method: the experimental method was basically the same with Example 4.
compound,measurement,setting,value
CCCCCCCCCCCSc1nc(NCCCN2CCOCC2)nc(SCCCCCCC)n1 [Compound S7S11D8],Absolute mRNA transfection efficiency in MCF7 cells,MCF7 cells [1],1.5%
same,Absolute mRNA transfection efficiency in Hela cells,Hela cells [2],5.6%
same,Absolute DNA transfection efficiency in Hela cells,Hela cells [3],5.6%
same,Absolute DNA transfection efficiency in MCF7 cells,MCF7 cells [4],12.9%
CCCCCCCCCCCSc1nc(NCCCN2CCN(C)CC2)nc(SCCCCCCC)n1 [Compound S7S11D9],Absolute mRNA transfection efficiency in MCF7 cells,MCF7 cells [1],3.6%
same,Absolute mRNA transfection efficiency in Hela cells,Hela cells [2],12.9%
same,Absolute DNA transfection efficiency in Hela cells,Hela cells [3],12.9%
same,Absolute DNA transfection efficiency in MCF7 cells,MCF7 cells [4],44.5%
CCCCCCCCCCCSc1nc(NCC2CCN(C)CC2)nc(SCCCCCCC)n1 [Compound S7S11D10],Absolute mRNA transfection efficiency in MCF7 cells,MCF7 cells [1],22.2%
same,Absolute mRNA transfection efficiency in Hela cells,Hela cells [2],19.7%
same,Absolute DNA transfection efficiency in Hela cells,Hela cells [3],19.7%
same,Absolute DNA transfection efficiency in MCF7 cells,MCF7 cells [4],33.8%
CCCCCCCCCCCCSc1nc(NCCN2CCCC2)nc(SCCCCCCC)n1 [Compound S7S12D3],Absolute mRNA transfection efficiency in MCF7 cells,MCF7 cells [1],9.4%
same,Absolute mRNA transfection efficiency in Hela cells,Hela cells [2],4.9%
same,Absolute DNA transfection efficiency in Hela cells,Hela cells [3],4.9%
same,Absolute DNA transfection efficiency in MCF7 cells,MCF7 cells [4],3.0%
CCCCCCCCCCCCSc1nc(NCCN2CCN(C)CC2)nc(SCCCCCCC)n1 [Compound S7S12D5],Absolute mRNA transfection efficiency in MCF7 cells,MCF7 cells [1],33.6%
same,Absolute mRNA transfection efficiency in Hela cells,Hela cells [2],4.9%
same,Absolute DNA transfection efficiency in Hela cells,Hela cells [3],4.9%
same,Absolute DNA transfection efficiency in MCF7 cells,MCF7 cells [4],27.1%
CCCCCCCCCCCCSc1nc(NCCCN(C)C)nc(SCCCCCCC)n1 [Compound S7S12D6],Absolute mRNA transfection efficiency in MCF7 cells,MCF7 cells [1],19.1%
same,Absolute mRNA transfection efficiency in Hela cells,Hela cells [2],5.8%
same,Absolute DNA transfection efficiency in Hela cells,Hela cells [3],5.8%
same,Absolute DNA transfection efficiency in MCF7 cells,MCF7 cells [4],52.1%
CCCCCCCCCCCCSc1nc(NCCCN2CCOCC2)nc(SCCCCCCC)n1 [Compound S7S12D8],Absolute mRNA transfection efficiency in MCF7 cells,MCF7 cells [1],24.0%
same,Absolute mRNA transfection efficiency in Hela cells,Hela cells [2],5.4%
same,Absolute DNA transfection efficiency in Hela cells,Hela cells [3],5.4%
same,Absolute DNA transfection efficiency in MCF7 cells,MCF7 cells [4],11.5%
CCCCCCCCCCCCSc1nc(NCCCN2CCN(C)CC2)nc(SCCCCCCC)n1 [Compound S7S12D9],Absolute mRNA transfection efficiency in MCF7 cells,MCF7 cells [1],21.2%
same,Absolute mRNA transfection efficiency in Hela cells,Hela cells [2],2.9%
same,Absolute DNA transfection efficiency in Hela cells,Hela cells [3],2.9%
same,Absolute DNA transfection efficiency in MCF7 cells,MCF7 cells [4],14.6%
CCCCCCCCCCCCSc1nc(NCC2CCN(C)CC2)nc(SCCCCCCC)n1 [Compound S7S12D10],Absolute mRNA transfection efficiency in MCF7 cells,MCF7 cells [1],47.5%
same,Absolute mRNA transfection efficiency in Hela cells,Hela cells [2],10.6%
same,Absolute DNA transfection efficiency in Hela cells,Hela cells [3],10.6%
same,Absolute DNA transfection efficiency in MCF7 cells,MCF7 cells [4],44.7%
CCCCCCCCCCCCNc1nc(NCCN2CCCC2)nc(SCCCCCCCC)n1 [Compound S8N12D3],Absolute mRNA transfection efficiency in MCF7 cells,MCF7 cells [1],20.7%
same,Absolute mRNA transfection efficiency in Hela cells,Hela cells [2],8.9%
same,Absolute DNA transfection efficiency in Hela cells,Hela cells [3],8.8%
same,Absolute DNA transfection efficiency in MCF7 cells,MCF7 cells [4],13.7%
CCCCCCCCCCCCNc1nc(NCCN2CCN(C)CC2)nc(SCCCCCCCC)n1 [Compound S8N12D5],Absolute mRNA transfection efficiency in MCF7 cells,MCF7 cells [1],19.7%
same,Absolute mRNA transfection efficiency in Hela cells,Hela cells [2],20.8%
same,Absolute DNA transfection efficiency in Hela cells,Hela cells [3],20.8%
same,Absolute DNA transfection efficiency in MCF7 cells,MCF7 cells [4],29.2%
CCCCCCCCCCCCNc1nc(NCCCN(C)C)nc(SCCCCCCCC)n1 [Compound S8N12D6],Absolute mRNA transfection efficiency in MCF7 cells,MCF7 cells [1],22.5%
same,Absolute mRNA transfection efficiency in Hela cells,Hela cells [2],39.3%
same,Absolute DNA transfection efficiency in Hela cells,Hela cells [3],39.3%
same,Absolute DNA transfection efficiency in MCF7 cells,MCF7 cells [4],25.5%
CCCCCCCCCCCCNc1nc(NCCCN2CCOCC2)nc(SCCCCCCCC)n1 [Compound S8N12D8],Absolute mRNA transfection efficiency in MCF7 cells,MCF7 cells [1],0.3%
same,Absolute mRNA transfection efficiency in Hela cells,Hela cells [2],8.4%
same,Absolute DNA transfection efficiency in Hela cells,Hela cells [3],8.4%
same,Absolute DNA transfection efficiency in MCF7 cells,MCF7 cells [4],2.1%
CCCCCCCCCCCCNc1nc(NCCCN2CCN(C)CC2)nc(SCCCCCCCC)n1 [Compound S8N12D9],Absolute mRNA transfection efficiency in MCF7 cells,MCF7 cells [1],16.4%
same,Absolute mRNA transfection efficiency in Hela cells,Hela cells [2],24.1%
same,Absolute DNA transfection efficiency in Hela cells,Hela cells [3],24.4%
same,Absolute DNA transfection efficiency in MCF7 cells,MCF7 cells [4],32.0%
CCCCCCCCCCCCNc1nc(NCC2CCN(C)CC2)nc(SCCCCCCCC)n1 [Compound S8N12D10],Absolute mRNA transfection efficiency in MCF7 cells,MCF7 cells [1],23.1%
same,Absolute mRNA transfection efficiency in Hela cells,Hela cells [2],22.6%
same,Absolute DNA transfection efficiency in Hela cells,Hela cells [3],22.6%
same,Absolute DNA transfection efficiency in MCF7 cells,MCF7 cells [4],40.6%
CCCCCCCCCCCCCNc1nc(NCCN2CCCC2)nc(SCCCCCCCC)n1 [Compound S8N13D3],Absolute mRNA transfection efficiency in MCF7 cells,MCF7 cells [1],18.1%
same,Absolute mRNA transfection efficiency in Hela cells,Hela cells [2],15.7%
same,Absolute DNA transfection efficiency in Hela cells,Hela cells [3],15.7%
same,Absolute DNA transfection efficiency in MCF7 cells,MCF7 cells [4],19.9%
CCCCCCCCCCCCCNc1nc(NCCN2CCN(C)CC2)nc(SCCCCCCCC)n1 [Compound S8N13D5],Absolute mRNA transfection efficiency in MCF7 cells,MCF7 cells [1],9.2%
same,Absolute mRNA transfection efficiency in Hela cells,Hela cells [2],14.7%
same,Absolute DNA transfection efficiency in Hela cells,Hela cells [3],14.7%
same,Absolute DNA transfection efficiency in MCF7 cells,MCF7 cells [4],24.5%
CCCCCCCCCCCCCNc1nc(NCCCN(C)C)nc(SCCCCCCCC)n1 [Compound S8N13D6],Absolute mRNA transfection efficiency in MCF7 cells,MCF7 cells [1],33.4%
same,Absolute mRNA transfection efficiency in Hela cells,Hela cells [2],27.6%
same,Absolute DNA transfection efficiency in Hela cells,Hela cells [3],27.6%
same,Absolute DNA transfection efficiency in MCF7 cells,MCF7 cells [4],32.2%
CCCCCCCCCCCCCNc1nc(NCCCN2CCOCC2)nc(SCCCCCCCC)n1 [Compound S8N13D8],Absolute mRNA transfection efficiency in MCF7 cells,MCF7 cells [1],0.4%
same,Absolute mRNA transfection efficiency in Hela cells,Hela cells [2],6.6%
same,Absolute DNA transfection efficiency in Hela cells,Hela cells [3],6.6%
same,Absolute DNA transfection efficiency in MCF7 cells,MCF7 cells [4],0.9%
CCCCCCCCCCCCCNc1nc(NCCCN2CCN(C)CC2)nc(SCCCCCCCC)n1 [Compound S8N13D9],Absolute mRNA transfection efficiency in MCF7 cells,MCF7 cells [1],13.3%
same,Absolute mRNA transfection efficiency in Hela cells,Hela cells [2],13.4%
same,Absolute DNA transfection efficiency in Hela cells,Hela cells [3],13.9%
same,Absolute DNA transfection efficiency in MCF7 cells,MCF7 cells [4],25.8%
CCCCCCCCCCCCCNc1nc(NCC2CCN(C)CC2)nc(SCCCCCCCC)n1 [Compound S8N13D10],Absolute mRNA transfection efficiency in MCF7 cells,MCF7 cells [1],23.0%
same,Absolute mRNA transfection efficiency in Hela cells,Hela cells [2],9.5%
same,Absolute DNA transfection efficiency in Hela cells,Hela cells [3],9.5%
same,Absolute DNA transfection efficiency in MCF7 cells,MCF7 cells [4],41.7%
CCCCCCCCCNc1nc(NCCN2CCCC2)nc(SCCCCCCCCC)n1 [Compound S9N9D3],Absolute mRNA transfection efficiency in MCF7 cells,MCF7 cells [1],12.1%
same,Absolute mRNA transfection efficiency in Hela cells,Hela cells [2],27.4%
same,Absolute DNA transfection efficiency in Hela cells,Hela cells [3],27.4%
same,Absolute DNA transfection efficiency in MCF7 cells,MCF7 cells [4],8.6%
CCCCCCCCCNc1nc(NCCN2CCN(C)CC2)nc(SCCCCCCCCC)n1 [Compound S9N9D5],Absolute mRNA transfection efficiency in MCF7 cells,MCF7 cells [1],8.3%
same,Absolute mRNA transfection efficiency in Hela cells,Hela cells [2],23.9%
same,Absolute DNA transfection efficiency in Hela cells,Hela cells [3],23.9%
same,Absolute DNA transfection efficiency in MCF7 cells,MCF7 cells [4],21.2%
CCCCCCCCCNc1nc(NCCCN(C)C)nc(SCCCCCCCCC)n1 [Compound S9N9D6],Absolute mRNA transfection efficiency in MCF7 cells,MCF7 cells [1],30.7%
same,Absolute mRNA transfection efficiency in Hela cells,Hela cells [2],30.3%
same,Absolute DNA transfection efficiency in Hela cells,Hela cells [3],30.3%
same,Absolute DNA transfection efficiency in MCF7 cells,MCF7 cells [4],11.0%
CCCCCCCCCNc1nc(NCCCN2CCOCC2)nc(SCCCCCCCCC)n1 [Compound S9N9D8],Absolute mRNA transfection efficiency in MCF7 cells,MCF7 cells [1],2.6%
same,Absolute mRNA transfection efficiency in Hela cells,Hela cells [2],7.4%
same,Absolute DNA transfection efficiency in Hela cells,Hela cells [3],7.4%
same,Absolute DNA transfection efficiency in MCF7 cells,MCF7 cells [4],7.8%
CCCCCCCCCNc1nc(NCCCN2CCN(C)CC2)nc(SCCCCCCCCC)n1 [Compound S9N9D9],Absolute mRNA transfection efficiency in MCF7 cells,MCF7 cells [1],21.0%
same,Absolute mRNA transfection efficiency in Hela cells,Hela cells [2],25.6%
same,Absolute DNA transfection efficiency in Hela cells,Hela cells [3],25.6%
same,Absolute DNA transfection efficiency in MCF7 cells,MCF7 cells [4],42.3%
